Test results: patent publication US10112926B2 (priority 2014, dated 2018)
Counter-ions that a name gives are not always drawn.

Columns and labels:
PI 4-kinase beta = PI 4-kinase beta (Homo sapiens (Human), UniProt Q9UBF8); conditions: read-out: Assay D PI4Kβ IC50
Vps34 = Vps34 (Homo sapiens (Human), UniProt Q8NEB9); conditions: read-out: Assay C VPS34 IC50
Chain of Vps34 (Q8NEB9 whole entry): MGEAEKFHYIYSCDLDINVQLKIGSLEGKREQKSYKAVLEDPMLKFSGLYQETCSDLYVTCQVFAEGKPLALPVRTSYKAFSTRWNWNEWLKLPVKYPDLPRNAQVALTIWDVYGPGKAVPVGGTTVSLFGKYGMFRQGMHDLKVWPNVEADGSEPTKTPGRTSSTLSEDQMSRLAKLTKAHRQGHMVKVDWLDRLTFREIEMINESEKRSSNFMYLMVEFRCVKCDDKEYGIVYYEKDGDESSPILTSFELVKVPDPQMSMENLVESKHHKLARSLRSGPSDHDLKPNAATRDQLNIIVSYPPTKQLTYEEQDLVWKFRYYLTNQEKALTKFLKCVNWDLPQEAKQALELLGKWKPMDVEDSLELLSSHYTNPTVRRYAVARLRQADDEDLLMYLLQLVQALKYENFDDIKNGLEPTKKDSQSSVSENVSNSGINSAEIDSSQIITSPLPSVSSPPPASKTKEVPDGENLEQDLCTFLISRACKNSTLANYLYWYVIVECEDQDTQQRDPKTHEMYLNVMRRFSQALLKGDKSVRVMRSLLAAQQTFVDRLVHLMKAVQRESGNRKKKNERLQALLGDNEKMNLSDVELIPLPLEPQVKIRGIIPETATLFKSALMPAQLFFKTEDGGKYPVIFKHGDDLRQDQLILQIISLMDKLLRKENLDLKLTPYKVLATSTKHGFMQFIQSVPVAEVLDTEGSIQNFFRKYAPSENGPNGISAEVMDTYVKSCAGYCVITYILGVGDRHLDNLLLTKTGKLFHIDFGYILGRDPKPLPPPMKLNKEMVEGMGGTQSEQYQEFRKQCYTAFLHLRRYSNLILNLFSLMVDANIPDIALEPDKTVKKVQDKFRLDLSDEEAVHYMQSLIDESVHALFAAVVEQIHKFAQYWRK

Chain of PI 4-kinase beta (Q9UBF8 whole entry): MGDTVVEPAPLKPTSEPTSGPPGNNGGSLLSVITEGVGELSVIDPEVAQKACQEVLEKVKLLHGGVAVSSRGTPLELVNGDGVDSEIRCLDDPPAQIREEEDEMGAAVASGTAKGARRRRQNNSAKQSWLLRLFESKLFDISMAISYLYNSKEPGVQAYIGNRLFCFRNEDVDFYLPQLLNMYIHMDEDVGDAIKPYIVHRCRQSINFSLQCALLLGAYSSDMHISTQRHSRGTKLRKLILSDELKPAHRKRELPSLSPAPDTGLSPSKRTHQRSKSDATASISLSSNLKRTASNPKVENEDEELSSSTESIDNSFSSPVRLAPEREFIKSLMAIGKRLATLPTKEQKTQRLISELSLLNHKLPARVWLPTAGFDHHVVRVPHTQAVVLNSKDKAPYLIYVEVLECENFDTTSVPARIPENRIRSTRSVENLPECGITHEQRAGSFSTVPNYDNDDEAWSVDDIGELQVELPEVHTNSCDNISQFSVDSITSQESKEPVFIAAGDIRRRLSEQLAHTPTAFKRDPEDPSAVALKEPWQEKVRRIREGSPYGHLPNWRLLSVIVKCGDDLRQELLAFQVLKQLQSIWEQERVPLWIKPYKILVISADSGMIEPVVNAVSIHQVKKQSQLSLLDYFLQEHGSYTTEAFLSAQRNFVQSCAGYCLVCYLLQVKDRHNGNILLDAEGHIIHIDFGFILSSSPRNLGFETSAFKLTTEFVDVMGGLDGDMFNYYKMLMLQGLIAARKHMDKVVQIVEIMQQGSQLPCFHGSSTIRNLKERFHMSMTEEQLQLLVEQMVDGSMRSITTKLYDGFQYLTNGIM

COC[C@@H]1COCCN1S(=O)(=O)c1ccc(C)c(-c2cnc(N)c(-c3cc(C)no3)c2)c1 [Example 19.20, (R)-5-(5-((3-(methoxymethyl)morpho-lino)sulfonyl)-2-methylphenyl)-3-(3-methylisoxazol-5-yl)pyridin-2-amine trifluoroacetic acid salt]
IC50 (PI 4-kinase beta): 4.2 µM

Cc1ncc(-c2cc(-c3cc(S(=O)(=O)NCC(C)(C)CO)ccc3C)cnc2N)o1 [Example 104.2, 3-(6-amino-5-(2-methyloxazol-5-yl)pyridin-3-yl)-N-(3-hydroxy-2,2-dimethylpropyl)-4-methylbenzenesulfon-amide]
IC50 (PI 4-kinase beta): 1.1 µM

CONS(=O)(=O)c1ccc(C)c(-c2cnc(N)c(-c3nc(C)no3)c2)c1 [Example 46, 3-(6-Amino-5-(3-methyl-1,2,4-oxadiazol-5-yl)pyridin-3-yl)-N-methoxy-4-methylbenzenesulfonamide]
IC50 (PI 4-kinase beta): > 10 µM

Cc1ncc(-c2cc(-c3cc(S(=O)(=O)NCC4CC4)ccc3C)cnc2N)o1 [Example 104.12, 3-(6-amino-5-(2-methyloxazol-5-yl)pyridin-3-yl)-N-(cyclopropylmethyl)-4-methylbenzenesulfon-amide]
IC50 (PI 4-kinase beta): 2.1 µM

Cc1noc(-c2cc(-c3cc(S(=O)(=O)NCC(C)(F)F)ccc3C)cnc2N)n1 [Example 37.38, 3-(6-Amino-5-(3-methyl-1,2,4-oxadiazol-5-yl)pyridin-3-yl)-N-(2,2-difluoropropyl)-4-methylbenzenesulfonamide]
IC50 (PI 4-kinase beta): 7.5 µM

Cc1noc(-c2cc(-c3cc(S(=O)(=O)NC4CCN(C(C)C)CC4)ccc3C)cnc2N)n1 [Example 37.34, 3-(6-Amino-5-(3-methyl-1,2,4-oxadiazol-5-yl)pyridin-3-yl)-N-(1-isopropylpiperidin-4-yl)-4-methylbenzenesulfonamide]
IC50 (PI 4-kinase beta): > 10 µM

Cc1cc(-c2cc(-c3cc(S(=O)(=O)N4CCC[C@H]4CO)ccc3C)cnc2N)on1 [Example 19.15, (S)-(1-((3-(6-amino-5-(3-methylisoxazol-5-yl)pyridin-3-yl)-4-methylphenyl)sulfonyl)pyrrolidin-2-yl)methanol trifluoroacetic acid salt]
IC50 (PI 4-kinase beta): 0.9 µM

Cc1noc(-c2cc(-c3cc(S(N)(=O)=O)ccc3C)cnc2N)n1 [Example 75, 3-(6-Amino-5-(3-methyl-1,2,4-oxadiazol-5-yl)pyridin-3-yl)-4-methylbenzenesulfonamide]
IC50 (PI 4-kinase beta): > 10 µM

Cc1cc(-c2cc(-c3cc(S(=O)(=O)N4CCNC(=O)C4)ccc3C)cnc2N)on1 [Example 19.17, 4-((3-(6-amino-5-(3-methylisoxazol-5-yl)pyridin-3-yl)-4-methylphenyl)sulfonyl) piperazin-2-one trifluoroacetic acid salt]
IC50 (PI 4-kinase beta): 1.4 µM

Cc1cc(-c2cc(-c3cc(S(=O)(=O)N4CC5(CCOC5)C4)ccc3C)cnc2N)on1 [Example 19.1, 5-(5-(6-oxa-2-azaspiro[3.4]octan-2-ylsulfonyl)-2-methylphenyl)-3-(3-methylisoxazol-5-yl)pyridin-2-amine trifluoroacetic acid salt]
IC50 (PI 4-kinase beta): 4 µM

Cc1noc(-c2cc(-c3cc(S(=O)(=O)N4CC[C@H](O)C4)ccc3C)cnc2N)n1 [Example 37.32, (S)-1-((3-(6-Amino-5-(3-methyl-1,2,4-oxadiazol-5-yl)pyridin-3-yl)-4-methylphenyl)sulfonyl)pyrrolidin-3-ol hydrochloride]
IC50 (PI 4-kinase beta): 8.5 µM

COC1(C)CN(S(=O)(=O)c2ccc(C)c(-c3cnc(N)c(-c4cc(C)no4)c3)c2)C1 [Example 37.20, 5-(5-((3-Methoxy-3-methylazetidin-yl)sulfonyl)-2-methylphenyl)-3-(3-methylisoxazol-5-yl)pyridin-2-amine]
IC50 (PI 4-kinase beta): 5.1 µM

Cc1cc(-c2cc(-c3cc(S(=O)(=O)NCC4(CO)CCOCC4)ccc3C)cnc2N)on1 [Example 37.1, 3-(6-Amino-5-(3-methylisoxazol-5-yl)pyridin-3-yl)-N-((4-(hydroxymethyl)tetrahydro-2H-pyran-4-yl)methyl)-4-methylbenzenesulfonamide]
IC50 (PI 4-kinase beta): 3.5 µM

Cc1noc(-c2cc(-c3cc(S(=O)(=O)NC[C@H]4CCCO4)ccc3C)cnc2N)n1 [Example 37.5, (R)-3-(6-Amino-5-(3-methyl-1,2,4-oxadiazol-5-yl)pyridin-3-yl)-4-methyl-N-((tetrahydrofuran-2-yl)methyl)benzenesulfonamide]
IC50 (PI 4-kinase beta): 8 µM

Cc1ccc(S(=O)(=O)NCC(C)(C)O)cc1-c1cnc(N)c(-c2ccn(C)c2)c1 [Example 58, 3-(6-Amino-5-(1-methyl-1H-pyrrol-3-yl)pyridin-3-yl)-N-(2-hydroxy-2-methylpropyl)-4-methylbenzenesulfonamide hydrochloride]
IC50 (PI 4-kinase beta): 3.2 µM

Cc1cc(-c2cc(-c3cc(S(=O)(=O)N4CCOC[C@H]4C)ccc3C)cnc2N)on1 [Example 19.6, (R)-5-(2-methyl-5-((3-methylmorpholino)sulfon-yl)phenyl)-3-(3-methylisoxazol-5-yl)pyridin-2-amine trifluoroacetic acid salt]
IC50 (Vps34): > 10 µM

Cc1cc(-c2cc(-c3cc(S(=O)(=O)N[C@H]4CC[C@H](N)CC4)ccc3C)cnc2N)on1 [Example 19.3, 3-(6-amino-5-(3-methylisoxazol-5-yl)pyridin-3-yl)-N-(trans-4-aminocyclohexyl)-4-methylbenzenesulfon-amide acetic acid salt]
IC50 (Vps34): > 10 µM

Cc1cc(-c2cc(-c3cc(S(=O)(=O)NC4CCOCC4)ccc3C)cnc2N)on1 [Example 37.8, 3-(6-Amino-5-(3-methylisoxazol-5-yl)pyridin-3-yl)-4-methyl-N-(tetrahydro-2H-pyran-4-yl)benzenesulfonamide]
IC50 (Vps34): > 10 µM

Cc1ncc(-c2cc(-c3cc(S(=O)(=O)NCCCO)ccc3C)cnc2N)o1 [Example 104.6, 3-(6-amino-5-(2-methyloxazol-5-yl)pyridin-3-yl)-N-(3-hydroxypropyl)-4-methylbenzenesulfon-amide]
IC50 (Vps34): 1.9 µM

Cc1cc(-c2cc(-c3cc(S(=O)(=O)N[C@@H]4CNC[C@H]4O)ccc3C)cnc2N)on1 [Example 19.4, 3-(6-amino-5-(3-methylisoxazol-5-yl)pyridin-3-yl)-N-(trans-4-hydroxypyrrolidin-3-yl)-4-methylbenzenesulfon-amide acetic acid salt]
IC50 (Vps34): > 10 µM

Cc1cc(-c2cc(-c3cc(S(=O)(=O)NCC4(CO)CCCC4)ccc3C)cnc2N)on1 [Example 37.23, 3-(6-Amino-5-(3-methylisoxazol-5-yl)pyridin-3-yl)-N-((1-(hydroxymethyl)cyclopentyl)methyl)-4-methylbenzenesulfonamide]
IC50 (Vps34): > 10 µM

Cc1ncc(-c2cc(-c3cc(S(=O)(=O)NCC(C)(C)O)ccc3C)cnc2N)o1 [Example 6, 3-(6-Amino-5-(2-methyloxazol-5-yl)pyridin-3-yl)-N-(2-hydroxy-2-methylpropyl)-4-methylbenzenesulfonamide]
IC50 (Vps34): > 10 µM

Cc1noc(-c2cc(-c3cc(S(=O)(=O)NC(CO)C4CCOC4)ccc3C)cnc2N)n1 (centres unmarked) [Example 37.21, 3-(6-Amino-5-(3-methyl-1,2,4-oxadiazol-5-yl)pyridin-3-yl)-N-(2-hydroxy-1-(tetrahydrofuran-3-yl)ethyl)-4-methylbenzenesulfonamide]
IC50 (PI 4-kinase beta): > 10 µM

CCN1CCC[C@H]1CNS(=O)(=O)c1ccc(C)c(-c2cnc(N)c(-c3cc(C)no3)c2)c1 [Example 37.33, (S)-3-(6-Amino-5-(3-methylisoxazol-5-yl)pyridin-3-yl)-N-((1-ethylpyrrolidin-2-yl)methyl)-4-methylbenzenesulfonamide]
IC50 (Vps34): > 10 µM

Cc1cc(-c2cc(-c3cc(S(=O)(=O)N4CCCC4(C)C)ccc3C)cnc2N)on1 [Example 19.9, 5-(5-((2,2-dimethylpyrrolidin-1-yl)sulfonyl)-2-methylphenyl)-3-(3-methylisoxazol-5-yl)pyridin-2-amine trifluoroacetic acid salt]
IC50 (PI 4-kinase beta): 1.9 µM

Cc1ccc(S(=O)(=O)NOCC(C)(C)O)cc1-c1cnc(N)c(-c2cnn(CC(F)(F)F)c2)c1 [Example 34, 3-(6-Amino-5-(1-(2,2,2-trifluoroethyl)-1H-pyrazol-4-yl)pyridin-3-yl)-N-(2-hydroxy-2-methylpropoxy)-4-methylbenzenesulfonamide hydrochloride]
IC50 (Vps34): > 10 µM

Cc1cc(-c2cc(-c3cc(S(=O)(=O)NCC4(O)CC4)ccc3C)cnc2N)on1 [Example 19.10, 3-(6-amino-5-(3-methylisoxazol-5-yl)pyridin-3-yl)-N-((1-hydroxycyclopropyl)methyl)-4-methylbenzenesulfon-amide trifluoroacetic acid salt]
IC50 (Vps34): > 10 µM

Cc1cc(-c2cc(-c3cc(S(=O)(=O)NCC4(CO)COC4)ccc3C)cnc2N)on1 [Example 50, 3-(6-Amino-5-(3-methylisoxazol-5-yl)pyridin-3-yl)-N-((3-(hydroxymethyl)oxetan-3-yl)methyl)-4-methylbenzenesulfonamide]
IC50 (Vps34): > 10 µM

Cc1cc(-c2cc(-c3cc(S(=O)(=O)NCCC4(O)CCCC4)ccc3C)cnc2N)on1 [Example 37.16, 3-(6-Amino-5-(3-methylisoxazol-5-yl)pyridin-3-yl)-N-(2-(1-hydroxycyclopentyl)ethyl)-4-methylbenzenesulfonamide]
IC50 (Vps34): > 10 µM

Cc1cc(-c2cc(-c3cc(S(=O)(=O)N4CC[C@@H](O)C4)ccc3C)cnc2N)on1 [Example 37.24, (R)-1-((3-(6-Amino-5-(3-methylisoxazol-5-yl)pyridin-3-yl)-4-methylphenyl)sulfonyl)pyrrolidin-3-ol]
IC50 (Vps34): > 10 µM

Cc1cnc(-c2cc(-c3cc(S(=O)(=O)NCC(C)(C)O)ccc3C)cnc2N)s1 [Example 90, 3-(6-Amino-5-(5-methylthiazol-2-yl)pyridin-3-yl)-N-(2-hydroxy-2-methylpropyl)-4-methylbenzenesulfonamide]
IC50 (Vps34): > 10 µM

Cc1ncc(-c2cc(-c3cc(S(=O)(=O)NCC4(CO)COC4)ccc3C)cnc2N)o1 [Example 67, 3-(6-Amino-5-(2-methyloxazol-5-yl)pyridin-3-yl)-N-((3-(hydroxymethyl)oxetan-3-yl)methyl)-4-methylbenzenesulfonamide]
IC50 (Vps34): 9.5 µM
